This passage reports Kd and RT results from US20250074943A1, “DLL3 BINDING PEPTIDES AND USES THEREOF” (AMGEN INC., priority 2021, published 2025).

For this test, the target named is T1, DLL3 (Homo sapiens, UniProt Q9NYJ7).
T1 construct: The recombinant DLL3 ectodomain (rhDLL3-Fc) was biotinylated; Fc
T1 sequence (Q9NYJ7 27-492 limits assumed): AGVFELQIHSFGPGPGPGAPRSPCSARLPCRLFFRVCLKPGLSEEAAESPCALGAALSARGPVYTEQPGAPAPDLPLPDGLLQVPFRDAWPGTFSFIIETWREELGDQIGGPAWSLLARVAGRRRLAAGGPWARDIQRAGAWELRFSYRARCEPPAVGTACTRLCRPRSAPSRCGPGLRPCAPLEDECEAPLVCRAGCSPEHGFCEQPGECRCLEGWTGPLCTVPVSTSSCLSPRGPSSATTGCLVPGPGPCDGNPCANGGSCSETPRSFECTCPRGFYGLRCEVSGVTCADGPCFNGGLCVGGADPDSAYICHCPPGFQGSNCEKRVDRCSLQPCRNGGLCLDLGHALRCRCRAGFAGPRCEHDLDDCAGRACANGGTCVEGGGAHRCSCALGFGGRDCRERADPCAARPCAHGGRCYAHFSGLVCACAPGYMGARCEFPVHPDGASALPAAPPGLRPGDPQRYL
Nature of the test: Binding of peptides with linkers and/or fluorescent agent to DLL3 (BLI, SPR; Table 6). On the procedure: Binding kinetic assays were performed using Bio-layer interferometry (BLI) technology. The recombinant DLL3 ectodomain (rhDLL3-Fc) was biotinylated using EZ-Link Sulfo-NHS-LC-LC-Biotin Kit according to the manufacturer's protocol (Pierce by Thermo Fisher Scientific). The recombinant protein was incubated with an excess of NHS-LC-LC Biotin ester, in a molar ratio of 1:3 (protein: biotin), at 25° C. for 90 min. The un-reacted biotin ester was removed by subsequent buffer exchange on 0.5 ml Zeba spin desalting columns 7K MWCO (Pierce by Thermo Fisher Scientific).
The off-rate screening of the peptides was done using a Biacore T200 instrument (Cytiva, Sweden). […] Peptides were diluted at 300 nM in PBS-P+1× buffer (Cytiva, Sweden) supplemented with 1% DMSO and 0.1% BSA, then injected over the ligand for five minutes at 30 μl/min, finally dissociation allowed for 1 h. Sensorgrams were analyzed by Biacore T200 Evaluation Software 3.0 (Cytiva, Sweden): specific binding was obtained by subtracting unspecific binding to naked biosensors and a zero analyte concentration made of binding assay buffer (double referencing). Kinetic parameters of koff were measured using a global fitting according to 1:1 Langmuir binding isotherm equation.

Bridge positions count the residues as written; N and C are the ends. Peptide text beside a SMILES is read from it. * marks the point of attachment. X13 = NCCCOCCOCCOCCCNC(=O)CCC(=O)NCCCOCCOCCOCCCNC(=O)CCC(=O)NCCCC[C@H](NC(=O)CCC(=O)NCCCOCCOCCOCCCN*)C(N)=O; X11 = NCCCC[C@H](NC(=O)CCC(=O)NCCCOCCOCCOCCCN*)C(N)=O

Regarding `CC(=O)N[C@@H](C)C(=O)N[C@@H](CCC(=O)O)C(=O)N[C@H](C(=O)N[C@H](C(=O)N[C@@H](CCC(=O)O)C(=O)N[C@@H](Cc1ccccc1)C(=O)N[C@@H](Cc1c[nH]c2ccccc12)C(=O)N[C@@H](Cc1c[nH]c2ccccc12)C(=O)N[C@H]1CSSC[C@@H](C(=O)N[C@H](C(=O)N[C@@H](Cc2c[nH]c3ccccc23)C(=O)NCC(=O)NCC(=O)NCCCOCCOCCOCCCNC(=O)CCC(=O)N[C@@H](CCCCN)C(N)=O)[C@@H](C)O)NC(=O)[C@H]([C@@H](C)O)NC(=O)[C@H](Cc2c[nH]c3ccccc23)NC(=O)[C@H](CC(N)=O)NC(=O)[C@H](CCC(=O)O)NC(=O)[C@H](CO)NC(=O)[C@H](CC(N)=O)NC(=O)CNC(=O)[C@H](CC(N)=O)NC1=O)C(C)C)[C@@H](C)O` [PepSP1324] (Ac-AETVEFWWCNGNSENWTCTWGG-X11; disulfide 9-18 (inferred)), binding was characterised by a dissociation constant (Kd) of 29 ± 16 nM and the RT is reported as 189.3 ± 73^. For the molecule `CC(=O)N[C@@H](C)C(=O)N[C@@H](CCC(=O)O)C(=O)N[C@H](C(=O)N[C@H](C(=O)N[C@@H](CCC(=O)O)C(=O)N[C@@H](Cc1ccccc1)C(=O)N[C@@H](Cc1c[nH]c2ccccc12)C(=O)N[C@@H](Cc1c[nH]c2ccccc12)C(=O)N[C@H]1CSSC[C@@H](C(=O)N[C@H](C(=O)N[C@@H](Cc2c[nH]c3ccccc23)C(=O)NCC(=O)NCC(=O)NCCCOCCOCCOCCCNC(=O)CCC(=O)N[C@@H](CCCCNC(=O)CCC(=O)NCCCOCCOCCOCCCNC(=O)CCC(=O)NCCCOCCOCCOCCCN)C(N)=O)[C@@H](C)O)NC(=O)[C@H]([C@@H](C)O)NC(=O)[C@H](Cc2c[nH]c3ccccc23)NC(=O)[C@H](CC(N)=O)NC(=O)[C@H](CCC(=O)O)NC(=O)[C@H](CO)NC(=O)[C@H](CC(N)=O)NC(=O)CNC(=O)[C@H](CC(N)=O)NC1=O)C(C)C)[C@@H](C)O` [PepSP1342] (Ac-AETVEFWWCNGNSENWTCTWGG-X13; disulfide 9-18 (inferred)), binding was put at a Kd of 42 ± 8 nM and the RT came out at 198.9 ± 41.1. Take `CC(=O)N[C@@H](C)C(=O)N[C@@H](CCC(=O)O)C(=O)N[C@H](C(=O)N[C@H](C(=O)N[C@@H](CCC(=O)O)C(=O)N[C@@H](Cc1ccccc1)C(=O)N[C@@H](Cc1c[nH]c2ccccc12)C(=O)NCC(=O)N[C@H]1CSSC[C@@H](C(=O)N[C@@H](Cc2c[nH]c3ccccc23)C(=O)N[C@@H](Cc2c[nH]c3ccccc23)C(=O)NCC(=O)NCC(=O)NCCCOCCOCCOCCCNC(=O)CCC(=O)N[C@@H](CCCCN)C(N)=O)NC(=O)[C@H]([C@@H](C)O)NC(=O)[C@H](CCC(=O)O)NC(=O)[C@H](CC(N)=O)NC(=O)CNC(=O)[C@H](Cc2c[nH]c3ccccc23)NC(=O)[C@H]([C@@H](C)O)NC(=O)CNC(=O)[C@H]([C@@H](C)O)NC1=O)C(C)C)[C@@H](C)O` [PepSP1321] (Ac-AETVEFWGCTGTWGNETCWWGG-X11; disulfide 9-18): the RT came to 369.

The term Kd denotes the constant that tells how readily two partners part at equilibrium. Read a low Kd as higher affinity.
